# Data: patent publication US20050009792A1, “(20S)-1alpha-hydroxy-2-methylene-19-nor-vitamin D3 and its uses” (priority 2003, published 2005)
# Legend:
# [1] = system: intestinal calcium transport; assay: Intestinal calcium transport in rats on low calcium diet; assay type: in vivo, Sprague-Dawley rats; conditions: for Ca transport S/M (mean ± SEM): daily for 7 days, male weanling rats, 0.02% Ca diet
# Protocol: Intestinal calcium transport was carried out as described by Penman et al (Biochemistry 29, 190-196,1990).
# (§1) Male, weanling Sprague-Dawley rats were placed on Diet 11 (0.47% Ca) diet+AEK for 11 days, followed by Diet 11 (0.02% Ca)+AEK for 31 days. Dosing (i.p.) began 7 days prior to sacrifice. Doses were given on a daily basis, 24 hours apart. The first 10 cm of the intestine was collected for gut transport studies and serum was collected for bone Ca mobilization analysis.
# [2] = system: bone calcium mobilization; assay: Serum calcium (bone calcium mobilization) in rats on low calcium diet; assay type: in vivo, Sprague-Dawley rats; conditions: for Serum Ca (mean ± SEM): daily for 7 days, male weanling rats, 0.02% Ca diet
# Protocol: as §1
# [3] = biological target: T1, vitamin D pig intestinal nuclear receptor (Sus scrofa, UniProt A3RGC1); conditions: Ostrem et al. J. Biol. Chem. 262, 14164-14171, 1987; cited from earlier work
# T1 construct: from tissue; host or cells: pig intestine (nuclear receptor preparation)
# T1 sequence (A3RGC1 1-427): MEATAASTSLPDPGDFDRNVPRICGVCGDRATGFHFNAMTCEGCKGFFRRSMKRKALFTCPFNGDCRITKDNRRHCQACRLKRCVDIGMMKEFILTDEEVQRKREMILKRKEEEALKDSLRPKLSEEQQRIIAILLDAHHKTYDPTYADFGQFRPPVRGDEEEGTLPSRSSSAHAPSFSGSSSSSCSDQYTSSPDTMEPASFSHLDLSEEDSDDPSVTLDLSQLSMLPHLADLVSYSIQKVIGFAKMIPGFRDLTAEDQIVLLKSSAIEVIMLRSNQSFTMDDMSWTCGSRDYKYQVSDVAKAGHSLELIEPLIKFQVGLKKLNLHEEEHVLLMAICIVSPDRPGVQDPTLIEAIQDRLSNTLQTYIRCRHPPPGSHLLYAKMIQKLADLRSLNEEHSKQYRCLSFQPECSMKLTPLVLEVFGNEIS
# [4] = biological target: T1, vitamin D pig intestinal nuclear receptor; assay: Competitive binding of [3H]-1,25-(OH)2-D3 to the porcine intestinal vitamin D receptor
# Protocol: FIG. 1 is a graph illustrating the relative activity of (20S)-1α-hydroxy-2-methylene-19-nor-vitamin D3 and 1α,25-dihydroxyvitamin D3 to compete for binding of [^3H]-1,25-(OH)2-D3 to the vitamin D pig intestinal nuclear receptor; and
# Competitive binding of the analog to the porcine intestinal receptor was carried out by the method described by Dame et al. (Biochemistry 25, 4523-4534, 1986).
# HL-60 cells = assay: Differentiation of HL-60 promyelocytes into monocytes; assay type: cell-based; conditions: FIG. 2
# Protocol: FIG. 2 is a graph illustrating the percent HL-60 cell differentiation as a function of the concentration of (20S)-1α-hydroxy-2-methylene-19-nor-vitamin D3 and of 1,25-dihydroxyvitamin D3
# The differentiation of HL-60 promyelocytic into monocytes was determined as described by Ostrem et al (J. Biol. Chem. 262, 14164-14171, 1987).
Compound,Ca transport S/M (mean ± SEM) ([1]; 260 pmol/day i.p.),Serum Ca (mean ± SEM) ([2]; 260 pmol/day i.p.),decrease in binding activity resulting from lack of a 25-hydroxyl [3],"ability to bind the vitamin D receptor relative to 1,25-dihydroxyvitamin D3 ([4]; FIG. 1)","ability to bind the vitamin D receptor relative to 1,25-dihydroxyvitamin D3 ([4]; FIG. 1, listed as 2-Methylene-19-nor-(20S)-1α-hydroxyvitamin D3)","potency on HL-60 differentiation relative to 1,25-(OH)2D3 (HL-60 cells; listed as (20S)-1α-Hydroxy-2-methylene-19-nor-vitamin D3)","potency on HL-60 differentiation relative to 1,25-(OH)2D3 (HL-60 cells; listed as (20S)-1α-hydroxy-2-methylene-19-nor-vitamin D3)",Ca transport S/M (mean ± SEM) ([1]; 130 pmol/day i.p.),"activity in stimulating intestinal calcium transport relative to 1,25-(OH)2D3 ([1]; statement in words on Table 1)",Serum Ca (mean ± SEM) ([2]; 130 pmol/day i.p.),"bone calcium mobilization activity relative to 1,25-(OH)2D3 ([2]; statement in words on Table 1)"
"C=C1/C(=C\C=C2/CCC[C@]3(C)[C@@H]([C@H](C)CCCC(C)(C)O)CC[C@@H]23)C[C@@H](O)C[C@@H]1O [1α,25-(OH)2D3, 1α,25-dihydroxyvitamin D3, reference compound]",7.7 ± 0.52,6.25 ± 0.19,–,–,–,–,–,–,–,–,–
C=C1/C(=C\C=C2/CCC[C@]3(C)[C@@H]([C@H](C)CCCC(C)C)CC[C@@H]23)C[C@@H](O)C[C@@H]1O [1α-hydroxyvitamin D3],–,–,100 fold,–,–,–,–,–,–,–,–
"C=C1[C@H](O)CC(=C/C=C2\CCC[C@@]3(C)C2CCC3[C@@H](C)CCCC(C)C)C[C@H]1O (stereo partly drawn) [(20S)-1α-(OH)-2-methylene-19-nor-D3, (20S)-1α-hydroxy-2-methylene-19-nor-vitamin D3]",10.0 ± 0.59,12.60 ± 0.54,–,"only a little less activity than 1,25(OH)2D3","only one-tenth that of 1,25-dihydroxyvitamin D3","more active than 1,25-(OH)2D3","more potent than 1,25-(OH)2D3",10.1 ± 0.68,"higher activity as compared to that of 1,25-(OH)2D3",9.63 ± 0.12,"higher bone calcium mobilization activity, as compared to 1,25-(OH)2D3"
